In patent US20160227776A1, “COMPOSITION CONTAINING ATTRACTANT OF NOXIOUS ARTHROPOD COMPRISING PLANT-DERIVED COMPONENT AND ANALOGUE OF SAME” (KYOYU AGRI CO., LTD., priority 2013, published 2016):

Assays:
Format in all cases: in vivo
[1] = system: Frankliniella occidentalis; experiment: Test Example 2: water trap attraction test, mixtures of two compounds; set-up: key: % of released insects: (treated catch − untreated catch)×100/total released; conditions: single compound for comparison, 24 hours
Procedure: (§1) Mixed hexane solutions were prepared respectively containing two types of compounds selected from among p-anisaldehyde, benzaldehyde, ethyl nicotinate, geraniol, linalool, nerol, citronellol, methyl anthranilate, methyl benzoate, o-aminoacetophenone, o-anisidine, methyl m-aminobenzoate, methyl o-toluate and α-hexylcinnamaldehyde. […] After impregnating pieces of filter paper with the mixed solution of the two types of compounds, the filter paper was affixed on a plastic vial cap using adhesive tape and set up in a water trap containing a surfactant. After releasing 30 adult female Frankliniella occidentalis into an acrylic cage, the water trap containing the above-mentioned mixed attractants was set up in the cage. 24 hours later, the number of Frankliniella occidentalis captured in the water trap was counted and the attraction rate was calculated using Equation 1. In addition, hexane solutions were also prepared containing each of the single compounds at their respective prescribed concentrations for the sake of comparison, and those solutions were tested in the same manner.
(§2) Attraction rate=(No. of captured individuals in treatment−no. of captured individuals in untreatment)*100/(total no. released per cage) (1)
(§3) In general, a synergistic attracting effect expected when mixing two given types of attractive compounds and using for treatment is determined from Colby's equation indicated with the following Equation 2: […]
(§4) X: attraction rate when treated with attractive compound A;
(§5) Y: attraction rate when treated with attractive compound B; and
(§6) E: attraction rate expected when treating by mixing attractive compound A and attractive compound B (expected attraction rate value).

Tetranychus urticae = experiment: Test Example 4: plastic tube filter paper contact test, mixtures of two compounds; set-up: key: (treated − untreated contacts) ×100 / repetitions, %; conditions: weight of each compound 1 μg; contact with filter paper within 10 minutes
Procedure: Mixed hexane solutions were prepared respectively containing two types of compounds selected from among p-anisaldehyde, benzaldehyde, ethyl nicotinate, geraniol, linalool, nerol, citronellol, methyl anthranilate, methyl benzoate, o-aminoacetophenone, o-anisidine, methyl m-aminobenzoate, methyl o-toluate and α-hexylcinnamaldehyde. The weight of each compound was adjusted to 1 μg. After impregnating pieces of filter paper (3 mm^2) with the mixed solution of the two types of compounds, the filter paper was set up at the head of a plastic tube (length of 9 cm, 5 mm^2 in diameters). An adult Tetranychus urticae was released into the end of plastic tube. Among 10 minutes, the number of T. urticae contacted the filter paper was counted and the attraction rate was calculated using Equation 1. In addition, hexane solutions were also prepared containing each of the single compounds at their respective prescribed concentrations for the sake of comparison, and those solutions were tested in the same manner.
Attraction rate=(No. of contacted individuals in treatment−no. of contacted individuals in untreatment)*100/(repetition) (1)
as §3, §4
(§7) Y: attraction rate when treated with attractive compound B;
as §6

[2] = system: Frankliniella occidentalis; experiment: Test Example 1: water trap attraction test, single compounds; set-up: key: (captured treated − captured untreated)×100/total released per cage; conditions: single compound, 30 adult females per cage, 24 hours
Procedure: Hexane solutions were prepared respectively containing single compounds selected from among p-anisaldehyde, benzaldehyde, ethyl nicotinate, geraniol, linalool, nerol, citronellol, methyl anthranilate, methyl benzoate, o-aminoacetophenone, o-anisidine, methyl m-aminobenzoate, methyl o-toluate and α-hexylcinnamaldehyde. Each single compound was prepared at five concentration levels consisting of 0.01 μg, 0.1 μg, 1 μg, 10 μg and 100 μg. After impregnating pieces of filter paper with these solutions, the filter paper was affixed on a plastic vial cap using adhesive tape and set up in a water trap containing a surfactant. After releasing 30 adult female Frankliniella occidentalis into an acrylic cage, the water trap containing the above-mentioned attractants was set up in the cage. 24 hours later, the number of Frankliniella occidentalis captured in the water trap was counted and the attraction rate was calculated using Equation 1.
as §2

[3] = system: Frankliniella occidentalis; experiment: Test Example 3: water trap attraction test, mixtures of three compounds; set-up: scale not given here; conditions: single compound for comparison, 24 hours
Procedure: as §1, with “prepared” for “prepared respectively”, “containing three” for “containing two”, “the three” for “the two”, “a pan” for “a water”, “single agents” for “single compounds”
In general, a synergistic attracting effect expected when mixing three given types of attractive compounds and using for treatment is determined from Colby's equation indicated with the following Equation 3: […]
as §4, §7
Z: attraction rate when treated with attractive compound C; and
E: attraction rate expected when treating by mixing attractive compound A, attractive compound B and attractive compound C (expected attraction rate value).

Drosophila melanogaster = experiment: Test Example 5: water trap attraction test, mixtures of two compounds; set-up: key: % = (captured treated − captured untreated)×100/total released; conditions: weight of each compound 100 μg; 20 adults per cage; 24 hours
Procedure: Mixed hexane solutions were prepared respectively containing two types of compounds selected from among p-anisaldehyde, benzaldehyde, ethyl nicotinate, geraniol, linalool, nerol, citronellol, methyl anthranilate, methyl benzoate, o-aminoacetophenone, o-anisidine, methyl m-aminobenzoate, methyl o-toluate and α-hexylcinnamaldehyde. The weight of each compound was adjusted to 100 μg. After impregnating pieces of filter paper with the mixed solution of the two types of compounds, the filter paper was affixed on a plastic vial cap using adhesive tape and set up in a water trap containing a surfactant. After releasing 20 adult Drosophila melanogaster into an acrylic cage, the water trap containing the above-mentioned mixed attractants was set up in the cage. 24 hours later, the number of D. melanogaster captured in the water trap was counted and the attraction rate was calculated using Equation 1. In addition, hexane solutions were also prepared containing each of the single compounds at their respective prescribed concentrations for the sake of comparison, and those solutions were tested in the same manner.
as §2, §3, §4, §5, §6

Thrips tabaci = experiment: Test Example 6: yellow sticky trap attraction test, mixtures of two compounds; set-up: key: % = (captured treated − captured untreated)×100/total released per cup; conditions: weight of each compound 1 μg; 10 adults per cup; 24 hours
Procedure: Mixed hexane solutions were prepared respectively containing two types of compounds selected from among p-anisaldehyde, benzaldehyde, ethyl nicotinate, geraniol, linalool, nerol, citronellol, methyl anthranilate, methyl benzoate, o-aminoacetophenone, o-anisidine, methyl m-aminobenzoate, methyl o-toluate and α-hexylcinnamaldehyde. The weight of each compound was adjusted to 1 μg. After impregnating pieces of filter paper (3 mm^2) with the mixed solution of the two types of compounds, the filter paper was affixed on a yellow sticky trap (1 cm^2). After releasing 10 adult Thrips tabaci into a plastic cup (150 ml), the yellow sticky trap containing the above-mentioned mixed attractants was set up at the side of the plastic cup. 24 hours later, the number of T. tabaci captured in the yellow sticky trap was counted and the attraction rate was calculated using Equation 1. In addition, hexane solutions were also prepared containing each of the single compounds at their respective prescribed concentrations for the sake of comparison, and those solutions were tested in the same manner.
Attraction rate=(No. of captured individuals in treatment−no. of captured individuals in untreatment)*100/(total no. released per cup) (1)
as §3, §4, §7, §6

SMILES	Attraction Rate ([1]; 100 μg)	Attraction Rate (Tetranychus urticae)	Attraction Rate ([2]; Amount 0.01 μg)	Attraction Rate ([2]; Amount 0.1 μg)	Attraction Rate ([2]; Amount 1 μg)	Attraction Rate ([2]; Amount 10 μg)	Attraction Rate ([2]; Amount 100 μg)	Attraction Rate ([3]; 100 μg)	Attraction Rate (Drosophila melanogaster)	Attraction Rate ([1]; 1 μg)	Attraction Rate ([3]; 1 μg)	Attraction Rate (Thrips tabaci)	Attraction Rate ([1]; 10 μg)	Attraction Rate ([3]; 10 μg)
COC(=O)c1ccccc1C [Methyl o-toluate, methyl o-toluate]	23	15	3	13	17	20	23	23	3					
COC(=O)c1ccccc1 [Methyl benzoate, methyl benzoate]	36	25	7	23	27	33	36	46	8					
O=Cc1ccccc1 [Benzaldehyde, benzaldehyde]		32	23	33	36	30	27		3	36	36			
COC(=O)c1ccccc1N [Methyl anthranilate, methyl anthranilate]	20		10	13	13	17	20	20	8			10		
CC(C)=CCC/C(C)=C/CO [Geraniol, geraniol]			10	17	30	33	27		23			0	33	33
COC(=O)c1cccc(N)c1 [Methyl m-aminobenzoate, methyl m-aminobenzoate]	40		3	10	27	33	40	40	8			0		
CC(C)=CCCC(C)CCO (centres unmarked) [Citronellol, citronellol]	23		7	20	20	20	23	23	3					
COc1ccc(C=O)cc1 [p-anisaldehyde]	36		17	23	23	30	36	36	3			10		
CCCCCCC(C=O)=Cc1ccccc1 [α-hexylcinnamaldehyde]			13	27	33	30	30		8	33	33	7		
CC(C)=CCC/C(C)=C\CO [Nerol, nerol]		5	10	33	33	30	27		3	33	33			
CC(=O)c1ccccc1N [o-aminoacetophenone]	36	38	3	17	23	30	36	36	13					
